Laboratory results from PubChem BioAssay (NCI).
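Five concentrations, 48 hours, 96-well plates. Definition used: TGI = concentration required for complete inhibition of growth.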

What was measured:
Experiment in all cases: DTP human tumour cell line panel, 48 h
[1] = system: BT-549 breast
[2] = system: CAKI-1 renal
[3] = system: CCRF-CEM leukemia
[4] = system: HCC-2998 colon
[5] = system: HCT-116 colon
[6] = system: HCT-15 colon
[7] = system: HL-60(TB) leukemia
[8] = system: HOP-92 NSCLC
[9] = system: K-562 leukemia
[10] = system: KM12 colon
[11] = system: LOX IMVI melanoma
[12] = system: M14 melanoma
[13] = system: MDA-MB-231 breast
[14] = system: NCI-H23 lung
[15] = system: OVCAR-4 ovarian
[16] = system: SK-MEL-28 melanoma
[17] = system: SK-OV-3 ovarian
[18] = system: SN12C renal
[19] = system: SR leukemia
[20] = system: TK-10 renal

CN(C)Cc1cc(C(C)(C)C)ccc1-c1ccc(C(C)(C)C)cc1CN(C)C
TGI [1]: > 100 µM
TGI [2]: > 100 µM
TGI [3]: > 100 µM
TGI [4]: 23.5 µM
TGI [5]: > 100 µM
TGI [6]: > 100 µM
TGI [7]: > 100 µM
TGI [8]: > 100 µM
TGI [9]: > 100 µM
TGI [10]: > 100 µM
TGI [11]: > 100 µM
TGI [12]: > 100 µM
TGI [13]: > 100 µM
TGI [14]: > 100 µM
TGI [15]: > 100 µM
TGI [16]: > 100 µM
TGI [17]: > 100 µM
TGI [18]: > 100 µM
TGI [19]: > 100 µM
TGI [20]: > 100 µM

COc1cc(C(=O)O[C@@H]2[C@@H](OC(=O)c3cc(OC)c(OC)c(OC)c3)[C@@H](OC)O[C@@H]3CO[C@@H](c4ccccc4)O[C@@H]23)cc(OC)c1OC
TGI [1]: > 100 µM
TGI [2]: > 100 µM
TGI [3]: > 100 µM
TGI [4]: > 100 µM
TGI [5]: > 100 µM
TGI [6]: > 100 µM
TGI [7]: > 100 µM
TGI [8]: > 100 µM
TGI [9]: > 100 µM
TGI [10]: > 100 µM
TGI [11]: > 100 µM
TGI [12]: > 100 µM
TGI [13]: > 100 µM
TGI [14]: > 100 µM
TGI [15]: > 100 µM
TGI [16]: > 100 µM
TGI [17]: > 100 µM
TGI [18]: > 100 µM
TGI [19]: > 100 µM
TGI [20]: > 100 µM

O=C(O)Cc1ccc(Oc2nc3ccccc3nc2C(=O)O)cc1
TGI [1]: > 100 µM
TGI [2]: > 100 µM
TGI [3]: > 100 µM
TGI [4]: > 100 µM
TGI [5]: > 100 µM
TGI [6]: > 100 µM
TGI [7]: > 100 µM
TGI [8]: > 100 µM
TGI [9]: > 100 µM
TGI [10]: > 100 µM
TGI [11]: > 100 µM
TGI [12]: > 100 µM
TGI [13]: > 100 µM
TGI [14]: > 100 µM
TGI [15]: > 100 µM
TGI [16]: > 100 µM
TGI [17]: > 100 µM
TGI [18]: > 100 µM
TGI [19]: > 100 µM
TGI [20]: > 100 µM

Nc1ncc(Cl)c(NCC2(CO)CC(CCc3ccccc3)C2)n1 (stereo not given)
TGI [1]: > 100 µM
TGI [2]: > 100 µM
TGI [3]: > 100 µM
TGI [4]: > 100 µM
TGI [5]: > 100 µM
TGI [6]: > 100 µM
TGI [7]: > 100 µM
TGI [8]: > 100 µM
TGI [9]: > 100 µM
TGI [10]: > 100 µM
TGI [11]: > 100 µM
TGI [12]: > 100 µM
TGI [13]: > 100 µM
TGI [14]: > 100 µM
TGI [15]: > 100 µM
TGI [16]: > 100 µM
TGI [17]: > 100 µM
TGI [18]: > 100 µM
TGI [19]: > 100 µM
TGI [20]: > 100 µM

Cc1nc2c(nc1C)-c1c(c3c(n1C)C(=O)CCC3)C(=O)C2=O
TGI [1]: 0.289 µM
TGI [2]: 0.286 µM
TGI [3]: 0.524 µM
TGI [4]: 4.06 µM
TGI [5]: 1.44 µM
TGI [6]: 1.36 µM
TGI [7]: 0.508 µM
TGI [8]: 2.94 µM
TGI [9]: > 100 µM
TGI [10]: 5.81 µM
TGI [11]: 0.397 µM
TGI [12]: 1.29 µM
TGI [13]: 0.803 µM
TGI [14]: 2.85 µM
TGI [15]: 0.279 µM
TGI [16]: 1.88 µM
TGI [17]: 2.61 µM
TGI [18]: 0.52 µM
TGI [19]: 0.769 µM
TGI [20]: 4.51 µM
